Reference: ChEMBL document CHEMBL5108044, “Discovery of a Novel Potent STAT3 Inhibitor HP590 with Dual p-Tyr705/Ser727 Inhibitory Activity for Gastric Cancer Treatment” (J Med Chem, 2022)
Calls of active or inactive are those of the source. The rule behind the calls is not given here.

What was measured:
MKN-45 [1] = experiment: In vivo inhibition of STAT3 in human MKN-45 cells xenografted in BALB/c nude mouse assessed as reduction in cyclin D1 gene expression at 25 to 50 mg/kg, po qd administered for 5 weeks by Western blot analysis; assay type: functional, organism-based; conditions: dose 25-50 mg/kg
[2] = Inhibition of ATP production in human MKN-45 cells incubated for 20 to 24 hrs by ATP assay kit method; assay type: functional, cell-based
[3] = target: T1, Signal transducer and activator of transcription 3 (Homo sapiens, UniProt P40763); experiment: Inhibition of STAT3 phosphorylation at Ser727 residue in human MGC-803 cells upto 40 nM incubated upto 24 hrs by Western blotting analysis; assay type: cell-based
[4] = target: T1, Signal transducer and activator of transcription 3; experiment: Inhibition of STAT3 phosphorylation at Tyr705 residue in human MKN-45 cells incubated upto 24 hrs by Western blotting analysis; assay type: cell-based; conditions: dose <= 40.0 nM, DDE = dose-dependent effect
[5] = target: T1, Signal transducer and activator of transcription 3; experiment: Inhibition of STAT3 phosphorylation at Tyr705 residue in human MGC-803 cells incubated upto 24 hrs by Western blotting analysis; assay type: cell-based; conditions: dose <= 40.0 nM, DDE = dose-dependent effect
[6] = target: T1, Signal transducer and activator of transcription 3; experiment: Inhibition of STAT3 phosphorylation at Tyr705 residue in human MGC-803 cells upto 40 nM by Western blotting analysis; assay type: cell-based; conditions: time <= 24.0 hrs, TDE = time-dependent effect
[7] = target: T1, Signal transducer and activator of transcription 3; experiment: Binding affinity to human STAT3-SH2 domain (127 to 722 residues) assessed as dissociation constant by MST assay
[8] = target: Mitogen-activated protein kinase 3 (Homo sapiens, UniProt P27361); experiment: Inhibition of ERK1 (unknown origin)
[9] = target: Mitogen-activated protein kinase 8 (Homo sapiens, UniProt P45983); experiment: Inhibition of JNK1 (unknown origin)
[10] = target: T1, Signal transducer and activator of transcription 3; experiment: Inhibition of STAT3 in human MKN-45 cells assessed as downregulation of c-Myc expression up to 40 nM by western blot analysis; assay type: cell-based; conditions: time <= 24.0 hrs, DDE = dose-dependent effect
[11] = target: T1, Signal transducer and activator of transcription 3; experiment: Inhibition of STAT3 in human MGC-803 cells assessed as downregulation of cyclin D1 expression up to 40 nM by western blot analysis; assay type: cell-based; conditions: time <= 24.0 hrs, TDE = time-dependent effect
[12] = target: T1, Signal transducer and activator of transcription 3; experiment: Inhibition of STAT3 in human MKN-45 cells assessed as downregulation of cyclin D1 expression at 10 to 40 nM incubated for 24 hrs by RT-PCR analysis; assay type: cell-based; conditions: dose 10-40 nM
[13] = target: T1, Signal transducer and activator of transcription 3; experiment: Inhibition of STAT3 in human MKN-45 cells assessed as downregulation of Survivin expression at 10 to 40 nM incubated for 24 hrs by RT-PCR analysis; assay type: cell-based; conditions: dose 10-40 nM
[14] = target: T1, Signal transducer and activator of transcription 3; experiment: Inhibition of STAT3 in human AGS cells assessed as downregulation of Bcl2 expression at 10 to 40 nM incubated for 24 hrs by RT-PCR analysis; assay type: cell-based; conditions: dose 10-40 nM
MKN-45 [15] = experiment: Inhibition of mitochondrial respiration in STAT3 knockdown human MKN-45 cells assessed as maximal oxygen consumption rate incubated for 80 mins […]; assay type: functional, cell-based
[16] = Antiproliferative activity against human HPNE cells assessed as cell viability measured upto 1 uM incubated for 72 hrs by MTS assay; assay type: toxicity, cell-based; conditions: htert-hpne
AGS [17] = experiment: Antiproliferative activity against human AGS cells assessed as cell viability incubated for 72 hrs by MTS assay; assay type: functional, cell-based; conditions: dose <= 100.0 nM, DDE = dose-dependent effect
MKN-45 [18] = experiment: Induction of apoptosis in human MKN-45 cells assessed as late apoptic cells 5 nM incubated for 48 hrs by FITC-annexin V/propidium iodide staining based flow cytometry (reference value: 17.9%); assay type: functional
MKN-45 [19] = experiment: Induction of apoptosis in human MKN-45 cells assessed as late apoptic cells 20 nM incubated for 48 hrs by FITC-annexin V/propidium iodide staining based flow cytometry (reference value: 17.9%); assay type: functional
AGS [20] = experiment: Induction of apoptosis in human AGS cells assessed as viable cells at 5 nM incubated for 48 hrs by FITC-annexin V/propidium iodide staining based flow cytometry (reference value: 87.2%); assay type: functional; conditions: read-out: Activity
AGS [21] = experiment: Induction of apoptosis in human AGS cells assessed as late apoptic cells 5 nM incubated for 48 hrs by FITC-annexin V/propidium iodide staining based flow cytometry (reference value: 9.56%); assay type: functional
AGS [22] = experiment: Induction of apoptosis in human AGS cells assessed as early apoptic cells 10 nM incubated for 48 hrs by FITC-annexin V/propidium iodide staining based flow cytometry (reference value: 0.55%); assay type: functional
AGS [23] = experiment: Induction of apoptosis in human AGS cells assessed as early apoptic cells 20 nM incubated for 48 hrs by FITC-annexin V/propidium iodide staining based flow cytometry (reference value: 0.55%); assay type: functional
Cytochrome P450 2C19 = Cytochrome P450 2C19 (Homo sapiens, UniProt P33261); experiment: Inhibition of CYP2C19 in human liver microsome; assay type: ADME, microsomes
Cytochrome P450 3A4 = Cytochrome P450 3A4 (Homo sapiens, UniProt P08684); experiment: Inhibition of CYP3A4 in human liver microsome; assay type: ADME, microsomes
[24] = AUC (0 to t) in ICR mouse plasma at 1 mg/kg, iv measured up to 24 hrs by LC-MS/MS analysis; assay type: ADME, organism-based; parameters: dose 1 mg/kg, time < 24 hrs, route iv
[25] = Volume of distribution at steady state in ICR mouse plasma at 1 mg/kg, iv measured up to 24 hrs by LC-MS/MS analysis; assay type: ADME, organism-based; conditions: read-out: Vdss
[26] = Elimination half life in ICR mouse plasma at 1 mg/kg, iv measured up to 24 hrs by LC-MS/MS analysis; assay type: ADME, organism-based; conditions: read-out: beta t1/2 (converted)
AGS [27] = experiment: Potency index, ratio of IC50 for BBI608 to IC50 for test compound for antiproliferative activity against human AGS cells assessed as reduction in cell viability incubated for 72 hrs by MTS assay; assay type: functional
AGS [28] = experiment: Inhibition of colony formation in STAT3 knockdown human AGS cells assessed as reduction in number of colonies incubated for 5 to 7 days by crystal violet staining based assay; assay type: functional, cell-based; conditions: time 5-7 day
[29] = Toxicity in BALB/c nude mouse xenografted with human MKN-45 cells assessed as kidney damage at 25 to 50 mg/kg, po qd administered for 5 weeks by H and E staining based analysis; assay type: organism-based; conditions: in vivo, 840 h, dose 25-50 mg/kg
[30] = Toxicity in BALB/c nude mouse assessed as body weight loss at 25 to 50 mg/kg, po qd administered for 5 weeks; assay type: organism-based; conditions: in vivo, 840 h, dose 25-50 mg/kg
[31] = Toxicity in […] mouse assessed as body weight loss at 25 to 50 mg/kg, po qd administered for 5 weeks; assay type: organism-based; conditions: in vivo, 840 h, dose 25-50 mg/kg
[32] = Toxicity in […] mouse xenografted with human MKN-45 cells assessed as spleen damage at 25 to 50 mg/kg, po qd administered for 5 weeks by H and E staining based analysis; assay type: organism-based; conditions: in vivo, 840 h, dose 25-50 mg/kg
[33] = Toxicity in […] mouse xenografted with human MKN-45 cells assessed as lung damage at 25 to 50 mg/kg, po qd administered for 5 weeks by H and E staining based analysis; assay type: organism-based; conditions: in vivo, 840 h, dose 25-50 mg/kg
MKN-45 [34] = experiment: Inhibition of STAT3 mediated oxidative phosphorylation at Ser727 residue in human MKN-45 cells assessed as reduction in oxidative phosphorylation at less than 40 nM incubated for 1 hr by Seahorse XF24 extracellular flux analyzer; assay type: functional, cell-based

T1 sequence (P40763 whole entry): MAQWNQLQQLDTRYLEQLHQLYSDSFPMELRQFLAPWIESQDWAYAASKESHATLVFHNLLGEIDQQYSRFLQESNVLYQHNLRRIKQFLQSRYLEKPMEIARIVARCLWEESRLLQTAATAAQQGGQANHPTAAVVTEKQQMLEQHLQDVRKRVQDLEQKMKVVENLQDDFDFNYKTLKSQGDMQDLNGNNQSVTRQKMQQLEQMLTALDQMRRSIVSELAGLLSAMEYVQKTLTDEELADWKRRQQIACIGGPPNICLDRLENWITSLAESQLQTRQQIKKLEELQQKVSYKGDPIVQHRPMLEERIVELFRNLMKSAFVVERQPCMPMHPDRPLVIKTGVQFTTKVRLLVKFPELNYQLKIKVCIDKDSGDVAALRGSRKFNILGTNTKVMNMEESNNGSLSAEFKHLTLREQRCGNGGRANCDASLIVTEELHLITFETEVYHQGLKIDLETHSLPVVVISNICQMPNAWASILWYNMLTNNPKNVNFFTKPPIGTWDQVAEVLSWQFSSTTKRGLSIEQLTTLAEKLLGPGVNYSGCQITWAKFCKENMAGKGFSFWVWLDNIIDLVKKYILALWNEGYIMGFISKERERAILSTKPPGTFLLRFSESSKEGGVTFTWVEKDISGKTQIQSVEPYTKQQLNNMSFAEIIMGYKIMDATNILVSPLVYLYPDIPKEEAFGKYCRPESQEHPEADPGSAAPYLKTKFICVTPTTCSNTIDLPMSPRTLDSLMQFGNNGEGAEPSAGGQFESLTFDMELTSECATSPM
Mitogen-activated protein kinase 8, sequence (P45983 whole entry): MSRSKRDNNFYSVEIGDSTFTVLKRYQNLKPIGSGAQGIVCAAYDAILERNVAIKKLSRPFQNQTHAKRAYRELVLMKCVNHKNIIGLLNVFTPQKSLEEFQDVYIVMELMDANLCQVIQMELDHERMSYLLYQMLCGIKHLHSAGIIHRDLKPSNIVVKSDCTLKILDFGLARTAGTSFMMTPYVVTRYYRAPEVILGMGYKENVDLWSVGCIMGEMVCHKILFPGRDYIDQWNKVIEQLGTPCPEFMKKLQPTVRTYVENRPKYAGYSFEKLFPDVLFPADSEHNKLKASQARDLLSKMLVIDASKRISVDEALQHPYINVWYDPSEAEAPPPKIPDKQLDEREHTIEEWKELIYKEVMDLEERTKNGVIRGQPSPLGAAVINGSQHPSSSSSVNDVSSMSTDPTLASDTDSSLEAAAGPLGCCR
Cytochrome P450 3A4, sequence (P08684 whole entry): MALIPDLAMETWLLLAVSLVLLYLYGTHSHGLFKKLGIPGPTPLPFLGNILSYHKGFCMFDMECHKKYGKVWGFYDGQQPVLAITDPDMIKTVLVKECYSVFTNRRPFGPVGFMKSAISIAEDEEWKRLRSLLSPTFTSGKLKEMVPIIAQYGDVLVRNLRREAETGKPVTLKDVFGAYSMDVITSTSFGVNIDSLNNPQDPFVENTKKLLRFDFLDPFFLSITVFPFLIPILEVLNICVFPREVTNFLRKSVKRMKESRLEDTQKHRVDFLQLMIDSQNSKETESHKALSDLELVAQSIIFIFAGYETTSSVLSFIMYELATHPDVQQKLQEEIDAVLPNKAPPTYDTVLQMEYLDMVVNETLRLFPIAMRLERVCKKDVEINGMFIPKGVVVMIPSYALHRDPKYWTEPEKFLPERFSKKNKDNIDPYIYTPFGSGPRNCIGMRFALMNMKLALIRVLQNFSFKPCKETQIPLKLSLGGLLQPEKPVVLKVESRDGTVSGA
Cytochrome P450 2C19, sequence (P33261 whole entry): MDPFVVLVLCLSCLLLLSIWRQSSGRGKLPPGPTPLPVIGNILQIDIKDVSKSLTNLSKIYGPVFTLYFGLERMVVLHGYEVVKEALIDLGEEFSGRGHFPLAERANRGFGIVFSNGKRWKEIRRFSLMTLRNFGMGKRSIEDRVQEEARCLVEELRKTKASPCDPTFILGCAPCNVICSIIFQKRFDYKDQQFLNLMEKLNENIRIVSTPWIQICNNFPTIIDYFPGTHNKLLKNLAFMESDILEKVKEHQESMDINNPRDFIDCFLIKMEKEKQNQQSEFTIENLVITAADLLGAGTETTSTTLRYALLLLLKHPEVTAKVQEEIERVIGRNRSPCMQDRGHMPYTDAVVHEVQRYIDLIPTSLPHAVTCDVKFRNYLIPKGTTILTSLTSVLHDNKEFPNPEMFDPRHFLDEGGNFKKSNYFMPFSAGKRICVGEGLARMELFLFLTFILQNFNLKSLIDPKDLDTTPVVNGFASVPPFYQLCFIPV
Mitogen-activated protein kinase 3, sequence (P27361 whole entry): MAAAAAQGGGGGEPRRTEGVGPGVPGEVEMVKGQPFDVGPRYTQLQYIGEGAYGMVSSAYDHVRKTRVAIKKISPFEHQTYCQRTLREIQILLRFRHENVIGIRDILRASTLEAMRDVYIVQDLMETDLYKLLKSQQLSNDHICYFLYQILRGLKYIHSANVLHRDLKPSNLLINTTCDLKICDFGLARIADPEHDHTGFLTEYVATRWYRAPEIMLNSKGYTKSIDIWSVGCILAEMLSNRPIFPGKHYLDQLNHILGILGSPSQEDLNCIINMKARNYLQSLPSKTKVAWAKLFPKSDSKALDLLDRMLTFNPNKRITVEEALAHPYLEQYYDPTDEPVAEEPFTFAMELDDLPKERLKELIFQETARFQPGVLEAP

O=C(c1ccc(-c2noc(-c3ccc(C(F)(F)F)cc3)n2)cc1)N1CCN(Cc2ccc(OCC(F)(F)F)cc2)CC1
inhibition (MKN-45 [1]): Active | IC50 [2]: 0.0247 µM | inhibition [3]: 100% | inhibition [4]: Dde | inhibition [5]: Dde | inhibition [6]: Tde | Kd [7]: 0.114 µM | IC50 [8]: > 10 µM | IC50 [9]: > 10 µM | inhibition [10]: Dde | inhibition [11]: Tde | inhibition [12]: Active | inhibition [13]: Active | inhibition [14]: Active | inhibition (MKN-45 [15]): Active | Activity [16]: Non-Toxic | Activity (AGS [17]): Dde | Activity (MKN-45 [18]): 17.1% | Activity (MKN-45 [19]): 22% | viability at 0.005 µM (AGS [20]): 85.7% | Activity (AGS [21]): 7.61% | Activity (AGS [22]): 2.57% | Activity (AGS [23]): 3.8% | IC50 (Cytochrome P450 2C19): 15.9 µM | IC50 (Cytochrome P450 3A4): > 50 µM | AUC(0-t) at 24 h [24]: 1730 ng·h/mL | Vd [25]: 6.56 L/kg | half-life [26]: 9.06 h | Ratio IC50 (AGS [27]): 30 | inhibition (AGS [28]): Active | Activity [29]: Non-Toxic | Activity [30]: Non-Toxic | Activity [31]: Non-Toxic | Activity [32]: Non-Toxic | Activity [33]: Non-Toxic | inhibition (MKN-45 [34]): Active
